# Assay results published in ChEMBL document CHEMBL4308841, “Synthesis, in vitro antiproliferative activity, and kinase inhibitory effects of pyrazole-containing diarylureas and diarylamides” (Eur J Med Chem, 2018).
# Tested on: NCI-H522
# Test: Growth inhibition of human NCI-H522 cells assessed as cell growth at 10 uM incubated for 48 hrs by sulforhodamine B assay relative to control
# Type: functional
# Details: NCI-H522, 48 h, read-out: Activity
row,Compound,growth at 10 µM
1,COc1cc(Cl)cc(-c2nn(-c3cccc(NC(=O)Nc4ccc(Cl)c(Cl)c4)c3)cc2-c2ccncc2)c1,-19%

# Tested on: HCT-15
# Test: Growth inhibition of human HCT15 cells assessed as cell growth at 1 uM incubated for 48 hrs by sulforhodamine B assay relative to control
# Type: functional
# Details: HCT-15, 48 h, read-out: Activity
row,Compound,growth at 1 µM
1,COc1cc(Cl)cc(-c2nn(-c3cccc(NC(=O)Nc4ccc(Cl)c(Cl)c4)c3)cc2-c2ccncc2)c1,77%

# Tested on: SF-268
# Test: Growth inhibition of human SF268 cells assessed as cell growth at 0.1 uM incubated for 48 hrs by sulforhodamine B assay relative to control
# Type: functional
# Details: SF-268, 48 h, read-out: Activity
row,Compound,growth at 0.1 µM
1,COc1cc(Cl)cc(-c2nn(-c3cccc(NC(=O)Nc4ccc(Cl)c(Cl)c4)c3)cc2-c2ccncc2)c1,95%

# Tested on: SF-268
# Test: Growth inhibition of human SF268 cells assessed as cell growth at 1 uM incubated for 48 hrs by sulforhodamine B assay relative to control
# Type: functional
# Details: SF-268, 48 h, read-out: Activity
row,Compound,growth at 1 µM
1,COc1cc(Cl)cc(-c2nn(-c3cccc(NC(=O)Nc4ccc(Cl)c(Cl)c4)c3)cc2-c2ccncc2)c1,88%

# Tested on: UO-31
# Test: Growth inhibition of human UO31 cells assessed as cell growth at 100 uM incubated for 48 hrs by sulforhodamine B assay relative to control
# Type: functional
# Details: UO-31, 48 h, read-out: Activity
row,Compound,growth at 100 µM
1,COc1cc(Cl)cc(-c2nn(-c3cccc(NC(=O)Nc4ccc(Cl)c(Cl)c4)c3)cc2-c2ccncc2)c1,-10%

# Tested on: T47D
# Test: Growth inhibition of human T47D cells assessed as cell growth at 0.01 uM incubated for 48 hrs by sulforhodamine B assay relative to control
# Type: functional
# Details: read-out: Activity
row,Compound,growth at 0.01 µM
1,COc1cc(Cl)cc(-c2nn(-c3cccc(NC(=O)Nc4ccc(Cl)c(Cl)c4)c3)cc2-c2ccncc2)c1,94%

# Tested on: BT-549
# Test: Growth inhibition of human BT549 cells assessed as cell growth at 1 uM incubated for 48 hrs by sulforhodamine B assay relative to control
# Type: functional
# Details: BT-549, 48 h, read-out: Activity
row,Compound,growth at 1 µM
1,COc1cc(Cl)cc(-c2nn(-c3cccc(NC(=O)Nc4ccc(Cl)c(Cl)c4)c3)cc2-c2ccncc2)c1,92%

# Tested on: MCF7
# Test: Growth inhibition of human MCF7 cells incubated for 48 hrs by sulforhodamine B assay
# Type: functional, cell-based
# Details: MCF7, 48 h, read-out: GI50
row,Compound,GI50
1,COc1cc(Cl)cc(-c2nn(-c3cccc(NC(=O)Nc4ccc(Cl)c(Cl)c4)c3)cc2-c2ccncc2)c1,2.56 µM

# Same assay, conditions: MCF7, 48 h, read-out: LC50
row,Compound,LC50
1,COc1cc(Cl)cc(-c2nn(-c3cccc(NC(=O)Nc4ccc(Cl)c(Cl)c4)c3)cc2-c2ccncc2)c1,> 100 µM

# Same assay, conditions: MCF7, 48 h, read-out: TGI
row,Compound,TGI
1,COc1cc(Cl)cc(-c2nn(-c3cccc(NC(=O)Nc4ccc(Cl)c(Cl)c4)c3)cc2-c2ccncc2)c1,13.2 µM

# Same assay, conditions: MCF7, 48 h, read-out: pGI50 (converted)
row,Compound,GI50
1,COc1cc(Cl)cc(-c2nn(-c3cccc(NC(=O)Nc4ccc(Cl)c(Cl)c4)c3)cc2-c2ccncc2)c1,2.57 µM

# Same assay, conditions: MCF7, 48 h, read-out: pLC50 (converted)
row,Compound,LC50
1,COc1cc(Cl)cc(-c2nn(-c3cccc(NC(=O)Nc4ccc(Cl)c(Cl)c4)c3)cc2-c2ccncc2)c1,> 100 µM

# Same assay, conditions: MCF7, 48 h, read-out: pTGI (converted)
row,Compound,TGI
1,COc1cc(Cl)cc(-c2nn(-c3cccc(NC(=O)Nc4ccc(Cl)c(Cl)c4)c3)cc2-c2ccncc2)c1,13.2 µM

# Tested on: COLO 205
# Test: Growth inhibition of human COLO205 cells assessed as cell growth at 100 uM incubated for 48 hrs by sulforhodamine B assay relative to control
# Type: functional
# Details: COLO 205, 48 h, read-out: Activity
row,Compound,growth at 100 µM
1,COc1cc(Cl)cc(-c2nn(-c3cccc(NC(=O)Nc4ccc(Cl)c(Cl)c4)c3)cc2-c2ccncc2)c1,-100%

# Tested on: 786-0
# Test: Growth inhibition of human 786-0 cells assessed as cell growth at 100 uM incubated for 48 hrs by sulforhodamine B assay relative to control
# Type: functional
# Details: 786-0, 48 h, read-out: Activity
row,Compound,growth at 100 µM
1,COc1cc(Cl)cc(-c2nn(-c3cccc(NC(=O)Nc4ccc(Cl)c(Cl)c4)c3)cc2-c2ccncc2)c1,-46%

# Tested on: M14
# Test: Growth inhibition of human M14 cells assessed as cell growth at 100 uM incubated for 48 hrs by sulforhodamine B assay relative to control
# Type: functional
# Details: M14, 48 h, read-out: Activity
row,Compound,growth at 100 µM
1,COc1cc(Cl)cc(-c2nn(-c3cccc(NC(=O)Nc4ccc(Cl)c(Cl)c4)c3)cc2-c2ccncc2)c1,-36%

# Tested on: PC-3
# Test: Growth inhibition of human PC3 cells assessed as cell growth at 100 uM incubated for 48 hrs by sulforhodamine B assay relative to control
# Type: functional
# Details: PC-3, 48 h, read-out: Activity
row,Compound,growth at 100 µM
1,COc1cc(Cl)cc(-c2nn(-c3cccc(NC(=O)Nc4ccc(Cl)c(Cl)c4)c3)cc2-c2ccncc2)c1,-24%

# Tested on: HT-29
# Test: Growth inhibition of human HT-29 cells assessed as cell growth at 0.01 uM incubated for 48 hrs by sulforhodamine B assay relative to control
# Type: functional
# Details: HT-29, 48 h, read-out: Activity
row,Compound,growth at 0.01 µM
1,COc1cc(Cl)cc(-c2nn(-c3cccc(NC(=O)Nc4ccc(Cl)c(Cl)c4)c3)cc2-c2ccncc2)c1,103%

# Tested on: SNB-75
# Test: Growth inhibition of human SNB75 cells assessed as cell growth at 100 uM incubated for 48 hrs by sulforhodamine B assay relative to control
# Type: functional
# Details: SNB-75, 48 h, read-out: Activity
row,Compound,growth at 100 µM
1,COc1cc(Cl)cc(-c2nn(-c3cccc(NC(=O)Nc4ccc(Cl)c(Cl)c4)c3)cc2-c2ccncc2)c1,-3%

# Tested on: HCC 2998
# Test: Growth inhibition of human HCC2998 cells assessed as cell growth at 0.01 uM incubated for 48 hrs by sulforhodamine B assay relative to control
# Type: functional
# Details: HCC 2998, 48 h, read-out: Activity
row,Compound,growth at 0.01 µM
1,COc1cc(Cl)cc(-c2nn(-c3cccc(NC(=O)Nc4ccc(Cl)c(Cl)c4)c3)cc2-c2ccncc2)c1,93%

# Tested on: SF-295
# Test: Growth inhibition of human SF295 cells incubated for 48 hrs by sulforhodamine B assay
# Type: functional, cell-based
# Details: SF-295, 48 h, read-out: GI50
row,Compound,GI50
1,COc1cc(Cl)cc(-c2nn(-c3cccc(NC(=O)Nc4ccc(Cl)c(Cl)c4)c3)cc2-c2ccncc2)c1,1.37 µM

# Same assay, conditions: SF-295, 48 h, read-out: LC50 (the source's name)
row,Compound,CC50
1,COc1cc(Cl)cc(-c2nn(-c3cccc(NC(=O)Nc4ccc(Cl)c(Cl)c4)c3)cc2-c2ccncc2)c1,> 100 µM

# Same assay, conditions: SF-295, 48 h, read-out: TGI
row,Compound,TGI
1,COc1cc(Cl)cc(-c2nn(-c3cccc(NC(=O)Nc4ccc(Cl)c(Cl)c4)c3)cc2-c2ccncc2)c1,72.1 µM

# Same assay, conditions: SF-295, 48 h, read-out: pGI50 (converted)
row,Compound,GI50
1,COc1cc(Cl)cc(-c2nn(-c3cccc(NC(=O)Nc4ccc(Cl)c(Cl)c4)c3)cc2-c2ccncc2)c1,1.78 µM

# Same assay, conditions: SF-295, 48 h, read-out: pLC50 (the source's name) (converted)
row,Compound,CC50
1,COc1cc(Cl)cc(-c2nn(-c3cccc(NC(=O)Nc4ccc(Cl)c(Cl)c4)c3)cc2-c2ccncc2)c1,> 100 µM

# Same assay, conditions: SF-295, 48 h, read-out: pTGI (converted)
row,Compound,TGI
1,COc1cc(Cl)cc(-c2nn(-c3cccc(NC(=O)Nc4ccc(Cl)c(Cl)c4)c3)cc2-c2ccncc2)c1,7.24 µM
